From ChEMBL document CHEMBL1201862, “PubChem BioAssay data set” (2004)
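A five-concentration, 48-hour dose response in 96-well plates underlies each endpoint, interpolated linearly between surrounding concentrations. Here, GI50 denotes the concentration required for 50% inhibition of growth.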 Activity calls are given as the source filed them. Cut-off read from the data, not from the text of the source: active = GI50 up to about 1.1 µM and inactive = higher.

Tests used:
Experiment in all cases: NCI-60 cell line screen, 48 h
SF-539 = tested on: SF-539
COLO 205 = tested on: COLO 205
SF-268 = tested on: SF-268
HOP-92 = tested on: HOP-92
NCI/ADR-RES = tested on: NCI/ADR-RES
CCRF-CEM = tested on: CCRF-CEM
TK-10 = tested on: TK-10
786-0 = tested on: 786-0
HCT-116 = tested on: HCT-116
SR = tested on: SR
M14 = tested on: M14
SK-MEL-5 = tested on: SK-MEL-5
OVCAR-8 = tested on: OVCAR-8
HL-60 = tested on: HL-60
OVCAR-3 = tested on: OVCAR-3
ACHN = tested on: ACHN
SF-295 = tested on: SF-295
OVCAR-5 = tested on: OVCAR-5
A498 = tested on: A498
UO-31 = tested on: UO-31

Compound | GI50 (SF-539) | GI50 (COLO 205) | GI50 (SF-268) | GI50 (HOP-92) | GI50 (NCI/ADR-RES) | GI50 (CCRF-CEM) | GI50 (TK-10) | GI50 (786-0) | GI50 (HCT-116) | GI50 (SR) | GI50 (M14) | GI50 (SK-MEL-5) | GI50 (OVCAR-8) | GI50 (HL-60) | GI50 (OVCAR-3) | GI50 (ACHN) | GI50 (SF-295) | GI50 (OVCAR-5) | GI50 (A498) | GI50 (UO-31)
Cc1cc2nc3c(C)c4ccccc4c(C)n3c2cc1C | 1.56 µM (inactive) | 2.15 µM (inactive) | 3.85 µM (inactive) | 2.09 µM (inactive) | 1.51 µM (inactive) | 3.84 µM (inactive) | 5.27 µM (inactive) | 1.24 µM (inactive) | 1.01 µM (active) | 2.96 µM (inactive) | 2.61 µM (inactive) | 2.26 µM (inactive) | 1.73 µM (inactive) | 3.22 µM (inactive) | 1.95 µM (inactive) | 1.67 µM (inactive) | 2.59 µM (inactive) | 2.48 µM (inactive) | – | –
CC[C@]1(c2ccc3c(c2)OCO3)C=[N+]([O-])O[C@H](OC2CCCC2(c2ccccc2)c2ccccc2)[C@@H]1OC(C)=O (some centres undefined) | 4.22 µM (inactive) | 2.23 µM (inactive) | 2.4 µM (inactive) | 2.09 µM (inactive) | 1.92 µM (inactive) | 2.86 µM (inactive) | 3.27 µM (inactive) | 1.77 µM (inactive) | 1.78 µM (inactive) | 2.22 µM (inactive) | 2.28 µM (inactive) | 1.56 µM (inactive) | 1.95 µM (inactive) | 2.87 µM (inactive) | 1.81 µM (inactive) | 2.81 µM (inactive) | 1.32 µM (inactive) | 3.83 µM (inactive) | 1.27 µM (inactive) | 2.05 µM (inactive)
Cn1cc(-c2cnc(-c3cn(C)c4ccccc34)cn2)c2ccccc21 | 3.37 µM (inactive) | 3.26 µM (inactive) | 5.48 µM (inactive) | 12.9 µM (inactive) | 2.96 µM (inactive) | 0.448 µM (active) | 18.6 µM (inactive) | 4.6 µM (inactive) | 3.4 µM (inactive) | 3.09 µM (inactive) | 3.47 µM (inactive) | 0.288 µM (active) | 4.89 µM (inactive) | 2.72 µM (inactive) | 3.04 µM (inactive) | 5.83 µM (inactive) | 2.44 µM (inactive) | 14 µM (inactive) | 4.69 µM (inactive) | 4.79 µM (inactive)
Cc1cc(NS(=O)(=O)c2ccc(Nc3c4ccccc4nc4c(C(=O)NC(CO)(CO)CO)cccc34)cc2)no1 | – | 42.4 µM (inactive) | 21.3 µM (inactive) | 32.7 µM (inactive) | > 100 µM (inactive) | 19.4 µM (inactive) | 29.2 µM (inactive) | 34.4 µM (inactive) | – | 26.3 µM (inactive) | 52.5 µM (inactive) | 32.4 µM (inactive) | 49.7 µM (inactive) | 34.5 µM (inactive) | 39.3 µM (inactive) | 32.7 µM (inactive) | 41 µM (inactive) | 62.8 µM (inactive) | 47.1 µM (inactive) | 48.6 µM (inactive)
CCOc1cc2c(cc1O)C(O)C[C@@H]1[C@@H]2CC[C@]2(C)[C@@H](O)CC[C@@H]12 (some centres undefined) | 0.28 µM (active) | 19.3 µM (inactive) | 4.16 µM (inactive) | 12.5 µM (inactive) | 0.279 µM (active) | 0.298 µM (active) | 0.661 µM (active) | 0.324 µM (active) | 0.261 µM (active) | 4.94 µM (inactive) | 0.575 µM (active) | 0.236 µM (active) | 0.885 µM (active) | 0.0822 µM (active) | 0.347 µM (active) | 0.553 µM (active) | 0.281 µM (active) | 52.2 µM (inactive) | 0.0501 µM (active) | 0.767 µM (active)
NC(CCOCCP(=O)(O)CCC1C=CC=CC1)C(=O)O (centres undefined) | > 100 µM (inactive) | > 100 µM (inactive) | > 100 µM (inactive) | > 100 µM (inactive) | > 100 µM (inactive) | > 100 µM (inactive) | > 100 µM (inactive) | – | > 100 µM (inactive) | > 100 µM (inactive) | > 100 µM (inactive) | > 100 µM (inactive) | > 100 µM (inactive) | > 100 µM (inactive) | > 100 µM (inactive) | > 100 µM (inactive) | > 100 µM (inactive) | > 100 µM (inactive) | – | > 100 µM (inactive)
c1ccc(CN2CCC3(CC2)SSC2(CCN(Cc4ccccc4)CC2)SS3)cc1 | > 100 µM (inactive) | 64 µM (inactive) | > 100 µM (inactive) | > 100 µM (inactive) | > 100 µM (inactive) | – | > 100 µM (inactive) | > 100 µM (inactive) | > 100 µM (inactive) | 83.2 µM (inactive) | > 100 µM (inactive) | 57.3 µM (inactive) | > 100 µM (inactive) | – | > 100 µM (inactive) | > 100 µM (inactive) | > 100 µM (inactive) | > 100 µM (inactive) | > 100 µM (inactive) | > 100 µM (inactive)
[C-]#[N+]C(=C\c1ccc(O)cc1)/C(=C/c1ccc(O)cc1)[N+]#[C-] [XANTOCILLIN] | 2.97 µM (inactive) | 20.1 µM (inactive) | 2.96 µM (inactive) | 2.9 µM (inactive) | 2.44 µM (inactive) | 0.76 µM (active) | 3.01 µM (inactive) | 6.4 µM (inactive) | 0.6 µM (active) | 1.67 µM (inactive) | 2.28 µM (inactive) | 2.04 µM (inactive) | 1.28 µM (inactive) | 1.07 µM (active) | 2.33 µM (inactive) | 2.03 µM (inactive) | 4.02 µM (inactive) | 4.94 µM (inactive) | 3.06 µM (inactive) | 1.48 µM (inactive)
CC(C)(CCCCC(C)(C)NC1=NCCO1)NC1=NCCO1 | > 10 µM (inactive) | > 10 µM (inactive) | > 10 µM (inactive) | – | > 10 µM (inactive) | > 10 µM (inactive) | > 10 µM (inactive) | – | > 10 µM (inactive) | > 10 µM (inactive) | > 10 µM (inactive) | > 10 µM (inactive) | > 10 µM (inactive) | > 10 µM (inactive) | > 10 µM (inactive) | > 10 µM (inactive) | > 10 µM (inactive) | > 10 µM (inactive) | > 10 µM (inactive) | > 10 µM (inactive)
CCCNC(C#N)c1ccc(OCCCCCCCCCCOc2ccc(C(C#N)NCCC)cc2)cc1 (centres undefined) | 55.2 µM (inactive) | > 100 µM (inactive) | 61.8 µM (inactive) | 32.4 µM (inactive) | 56.8 µM (inactive) | 15.3 µM (inactive) | 29.2 µM (inactive) | > 100 µM (inactive) | 31.9 µM (inactive) | 25.6 µM (inactive) | 40.4 µM (inactive) | 33.3 µM (inactive) | 30.9 µM (inactive) | 17.3 µM (inactive) | 30.5 µM (inactive) | 83.9 µM (inactive) | 31.3 µM (inactive) | 69.8 µM (inactive) | 23.1 µM (inactive) | 51.8 µM (inactive)
O=C1N[C@@H]([C@H](CCCCCO)OC(=O)c2ccccc2)CO1 | > 100 µM (inactive) | > 10 µM (inactive) | – | > 100 µM (inactive) | > 100 µM (inactive) | > 100 µM (inactive) | > 100 µM (inactive) | > 100 µM (inactive) | > 100 µM (inactive) | > 100 µM (inactive) | – | > 100 µM (inactive) | > 100 µM (inactive) | > 100 µM (inactive) | > 100 µM (inactive) | > 100 µM (inactive) | > 100 µM (inactive) | > 100 µM (inactive) | > 100 µM (inactive) | > 100 µM (inactive)
CC12Nc3ccccc3N1C(=O)c1ccccc12 (centres undefined) | > 100 µM (inactive) | > 100 µM (inactive) | > 100 µM (inactive) | > 100 µM (inactive) | > 100 µM (inactive) | > 100 µM (inactive) | > 100 µM (inactive) | > 100 µM (inactive) | > 100 µM (inactive) | > 100 µM (inactive) | > 100 µM (inactive) | > 100 µM (inactive) | > 100 µM (inactive) | > 100 µM (inactive) | > 100 µM (inactive) | > 100 µM (inactive) | > 100 µM (inactive) | > 100 µM (inactive) | > 100 µM (inactive) | > 100 µM (inactive)
O=C(Nc1ccc(F)cc1)c1cc2ccc(O)cc2o/c1=N\c1ccccc1F | 42.7 µM (inactive) | > 100 µM (inactive) | 29.1 µM (inactive) | – | 15.6 µM (inactive) | 17 µM (inactive) | – | 24.4 µM (inactive) | 24.8 µM (inactive) | 36.1 µM (inactive) | – | 10.7 µM (inactive) | 13.7 µM (inactive) | 18.6 µM (inactive) | 27.9 µM (inactive) | 20 µM (inactive) | 30.7 µM (inactive) | 29.1 µM (inactive) | 37.6 µM (inactive) | –
C=C1C(=O)OC2/C=C(\C)CC/C=C(/C)CC(OC(=O)/C(=C/CO)CO)C12 (centres undefined) | 24.5 µM (inactive) | 16.9 µM (inactive) | 26.7 µM (inactive) | 26.7 µM (inactive) | 32.6 µM (inactive) | 6.43 µM (inactive) | 15.7 µM (inactive) | 23.6 µM (inactive) | > 10 µM (inactive) | 28.6 µM (inactive) | 18.1 µM (inactive) | 17.3 µM (inactive) | 32.4 µM (inactive) | 3.33 µM (inactive) | 25.2 µM (inactive) | 17.8 µM (inactive) | 93.5 µM (inactive) | 18.7 µM (inactive) | > 10 µM (inactive) | 17 µM (inactive)
